pEC50, pKd: −log10 of the molar value. Where two headings read alike, the source gives them in different places.
Key:
[1] = system: cMet-negative T-47D (breast cancer); experiment: In vitro cytotoxicity (cell growth inhibition, CellTiter-Glo); assay type: cell-based; settings: Homo sapiens, T47D, 96 h
Method: (§1) Briefly, cells were seeded in 384-well plates at 1,000-1,500 cells/well density and treated with a titration of test article, generated in complete cell growth medium. Treated cells were incubated for 4-5 days under standard culturing conditions (37° C./5% CO2). After incubation, CellTiter-Glo® reagent (Promega Corporation, Madison, WI; Cat. No. G7570) was spiked into each well and luminescence corresponding to ATP present in each well was measured using a Synergy™ H1 microplate (BioTek Instruments, Winooski, VT). Based on blank wells (no test article added, only blank media), % cytotoxicity values were calculated using ATP measurement RLU values (Relative Light Units) and plotted against test article concentration using GraphPad Prism 8 software (GraphPad Software, San Diego, CA).
(§2) Cytotoxicity was determined as described in Example 6 with treated cells (1,000 cells/well) being incubated for 4 days under standard culturing conditions (37° C./5% CO2).
The cell growth inhibition capabilities of ADCs comprising anti-cMet antibodies with either a HomoFc or HetFc backbone (v32634 and v17427, respectively) conjugated to Drug-Linker 002 by stochastic lysine conjugation at approximately DAR 4 and DAR 6 were assessed in a panel of four cMet-expressing tumour cell lines and one cMet-negative cell line. […] Cytotoxicity was determined as described in Example 8. […]

H292 (lung carcinoma) = experiment: as above; assay type: cell-based; settings: for pEC50: H292, 4 days
Method: (§3) The cell growth inhibition (cytotoxicity) capabilities of anti-cMet ADCs comprising variant v17427 (HetFc, unmodified hinge) conjugated to Drug-Linker 001 or MCvcPABC-MMAE by stochastic cysteine conjugation at an average DAR 4 were determined in a panel of four cMet-expressing cell lines as described below. The cell lines were EBC-1 (lung squamous cell carcinoma), H292 (lung carcinoma), BT-20 (breast cancer) and SW48 (colorectal cancer).
as §1, §2
(§4) The cell growth inhibition capabilities of ADCs comprising anti-cMet antibodies with either a HomoFc or HetFc backbone (v32634 and v17427, respectively) conjugated to Drug-Linker 002 by stochastic lysine conjugation at approximately DAR 4 and DAR 6 were assessed in a panel of four cMet-expressing tumour cell lines and one cMet-negative cell line. The anti-RSV antibody, palivizumab (v22277), conjugated to Drug-Linker 002 at DAR 3.7, and free payload (Compound 1), were used as controls. Cytotoxicity was determined as described in Example 8. Cell lines were SNU-5 (gastric carcinoma), EBC-1 (lung squamous cell carcinoma), H1975 (non-small cell lung cancer), H292 (lung carcinoma) and cMet-negative T-47D (breast cancer).
(§5) The cell growth inhibition capabilities of site-specific cysteine-conjugated ADCs comprising various cysteine insertion antibody variants conjugated to Drug-Linker 001 at approximately DAR 1, 2 or 3, were assessed in a panel of four cMet-expressing tumour cell lines, SNU-5 (gastric carcinoma), EBC-1 (lung squamous cell carcinoma), H292 (lung carcinoma) and H1975 (non-small cell lung cancer), and one cMet-negative cell line, T-47D (breast carcinoma). An ADC comprising the anti-RSV antibody palivizumab (v22277) conjugated to Drug-Linker 001 at approximately DAR 4 was used as a non-targeted control. […] Cytotoxicity was determined as described in Example 7.
(§6) The cell growth inhibition capabilities of ADCs comprising variant v29001, having two cysteine insertions, conjugated to multivalent Drug-Linker 003 or multivalent Drug-Linker 004, were assessed in a panel of cMet-expressing tumour cell lines together with ADCs comprising parental variant v17427 conjugated to the monovalent Drug-Linker 002 at DAR 4 or DAR 6. Cell lines used were SNU-5 (gastric carcinoma), EBC-1 (lung squamous cell carcinoma), H292 (lung carcinoma), H1975 (non-small cell lung cancer) and T-47D (breast carcinoma, cMet-negative). ADCs comprising the anti-RSV antibody palivizumab (v22277) conjugated to Drug-Linker 002 were used as non-targeted controls. Free payload Compound 1 was also included as a control. Cytotoxicity was determined as described in Example 8.

[2] = system: EBC-1 (lung squamous cell carcinoma); experiment: as above; assay type: cell-based
Method: as §3, §1, §2, §4, §5, §6

[3] = system: H1975 (non-small cell lung cancer); experiment: as above; assay type: cell-based
Method: as §1
(§7) The cell growth inhibition capabilities of anti-cMet ADCs comprising variant v17427 (HetFc, unmodified hinge) conjugated to Drug-Linker 002 by stochastic lysine conjugation at DARs ranging from DAR 2 to DAR 6 were determined in a panel of seven cMet-expressing cell lines. Variant v17427 conjugated to MCvcPABC-MMAE drug linker at DAR 4, and anti-RSV antibody, palivizumab (v22277), conjugated to Drug-Linker 002 or MCvcPABC-MMAE at DAR 4, were used as controls. Cell lines were SNU-5 (gastric carcinoma), EBC-1 (lung squamous cell carcinoma), HCC827 (lung cancer), H1975 (non-small cell lung cancer), HCT-116 (colorectal cancer), H292 (lung carcinoma) and BT-20 (breast cancer).
as §2, §4, §6

[4] = system: SNU-5 (gastric carcinoma); experiment: as above; assay type: cell-based; settings: 4 days
Method: as §1, §7, §2, §4, §6

SW48 (colorectal cancer) = experiment: as above; assay type: cell-based; settings: Homo sapiens, 4-5 days, Table 6.1, read-out: EC50 (nM) - DAR corrected
Method: as §3, §1

BT-20 (breast cancer) = experiment: as above; assay type: cell-based
Method: as §3
as §1, with “CA). […]” for “CA).”
as §2

HCC827 (lung cancer) = experiment: as above; assay type: cell-based; settings: 4 days, Table 8.1
Method: as §1
(§8) The cell growth inhibition capabilities of anti-cMet ADCs comprising variant v17427 (HetFc, unmodified hinge) conjugated to Drug-Linker 002 by stochastic lysine conjugation at DARs ranging from DAR 2 to DAR 6 were determined in a panel of seven cMet-expressing cell lines. […]
as §2

[5] = system: HCT-116 (colorectal cancer); experiment: as above; assay type: cell-based; settings: 4 days, Table 8.1
Method: as §1, §8, §2

[6] = system: cMet-positive non-small cell lung carcinoma (NSCLC); settings: Phase II trials; cited from earlier work
EBC-1 = experiment: Receptor-mediated internalization, high content imaging; assay type: cell-based; settings: 5 Hours 37° C.
[7] = target: T1, cMet on SNU-5 endogenous cMet-expressing cell line (Homo sapiens, UniProt P08581); experiment: Cellular equilibrium binding by flow cytometry
T1 construct: SNU-5 and H292 endogenous cMet-expressing cell lines; endogenous in cells; host or cells: SNU-5
Method: (§9) The on-cell binding capabilities of ADCs comprising anti-cMet antibodies with either a HomoFc or HetFc backbone (v32634 and v17427, respectively) conjugated to Drug-Linker 002 by stochastic lysine conjugation at approximately DAR 4 and DAR 6 were assessed for cMet binding using SNU-5 and H292 endogenous cMet-expressing cell lines by flow cytometry as described below. Unconjugated anti-RSV antibody palivizumab (v22277) was used as a control.
(§10) Briefly, cells were seeded at 50,000 cells/well in V-bottom 96-well plates and treated with antibody for 24 hours at 4° C. to prevent internalization. Following incubation, cells were washed and stained with anti-human IgG Fc AF647 conjugate (Jackson ImmunoResearch Laboratories, Inc., West Grove, PA; Cat. No. 109-605-098) at 4° C. for 30 min. Following incubation and washing, fluorescence was detected by flow cytometry on a BD LSRFortessa™ Cell Analyzer (BD Biosciences, Franklin Lake, NJ) with 1,000 minimum events collected per well. AF647/APC-A GeoMean (fluorescence signal geometric mean, proportional to anti-Human AF647 binding) in live cell population was plotted using GraphPad Prism Version 8 (GraphPad Software, San Diego, CA).
(§11) The on-cell binding capabilities of the following unconjugated antibodies and ADCs were assessed on SNU-5 and H292 endogenous cMet-expressing cell lines by flow cytometry: unconjugated variant v17427 (HetFc, unmodified hinge), and cysteine insertion variant v29001 (two cysteine insertions), lysine conjugated ADCs comprising variant v17427 and Drug-Linker 002 at DAR 4 or DAR 6, and cysteine conjugated ADCs comprising cysteine insertion variant insertion v29001 conjugated to Drug-Linker 001, Drug-Linker 003 or Drug-Linker 004 at DAR 2, 4 or 6, respectively. […] Cellular binding was determined as described in Example 10.

[8] = target: T2, cMet on H292 endogenous cMet-expressing cell line (Homo sapiens, UniProt P08581); experiment: Cellular equilibrium binding by flow cytometry
T2 construct: SNU-5 and H292 endogenous cMet-expressing cell lines; endogenous in cells; host or cells: H292
Method: as §9, §10, §11

HT-29 = experiment: Receptor-mediated internalization, high content imaging; assay type: cell-based; settings: 5 Hours 37° C.
[9] = 24 hours at 4° C., Table 10.1, read-out: Apparent Kd
[10] = Table 13.1, read-out: Apparent Kd

T1 sequence (P08581 25-1390): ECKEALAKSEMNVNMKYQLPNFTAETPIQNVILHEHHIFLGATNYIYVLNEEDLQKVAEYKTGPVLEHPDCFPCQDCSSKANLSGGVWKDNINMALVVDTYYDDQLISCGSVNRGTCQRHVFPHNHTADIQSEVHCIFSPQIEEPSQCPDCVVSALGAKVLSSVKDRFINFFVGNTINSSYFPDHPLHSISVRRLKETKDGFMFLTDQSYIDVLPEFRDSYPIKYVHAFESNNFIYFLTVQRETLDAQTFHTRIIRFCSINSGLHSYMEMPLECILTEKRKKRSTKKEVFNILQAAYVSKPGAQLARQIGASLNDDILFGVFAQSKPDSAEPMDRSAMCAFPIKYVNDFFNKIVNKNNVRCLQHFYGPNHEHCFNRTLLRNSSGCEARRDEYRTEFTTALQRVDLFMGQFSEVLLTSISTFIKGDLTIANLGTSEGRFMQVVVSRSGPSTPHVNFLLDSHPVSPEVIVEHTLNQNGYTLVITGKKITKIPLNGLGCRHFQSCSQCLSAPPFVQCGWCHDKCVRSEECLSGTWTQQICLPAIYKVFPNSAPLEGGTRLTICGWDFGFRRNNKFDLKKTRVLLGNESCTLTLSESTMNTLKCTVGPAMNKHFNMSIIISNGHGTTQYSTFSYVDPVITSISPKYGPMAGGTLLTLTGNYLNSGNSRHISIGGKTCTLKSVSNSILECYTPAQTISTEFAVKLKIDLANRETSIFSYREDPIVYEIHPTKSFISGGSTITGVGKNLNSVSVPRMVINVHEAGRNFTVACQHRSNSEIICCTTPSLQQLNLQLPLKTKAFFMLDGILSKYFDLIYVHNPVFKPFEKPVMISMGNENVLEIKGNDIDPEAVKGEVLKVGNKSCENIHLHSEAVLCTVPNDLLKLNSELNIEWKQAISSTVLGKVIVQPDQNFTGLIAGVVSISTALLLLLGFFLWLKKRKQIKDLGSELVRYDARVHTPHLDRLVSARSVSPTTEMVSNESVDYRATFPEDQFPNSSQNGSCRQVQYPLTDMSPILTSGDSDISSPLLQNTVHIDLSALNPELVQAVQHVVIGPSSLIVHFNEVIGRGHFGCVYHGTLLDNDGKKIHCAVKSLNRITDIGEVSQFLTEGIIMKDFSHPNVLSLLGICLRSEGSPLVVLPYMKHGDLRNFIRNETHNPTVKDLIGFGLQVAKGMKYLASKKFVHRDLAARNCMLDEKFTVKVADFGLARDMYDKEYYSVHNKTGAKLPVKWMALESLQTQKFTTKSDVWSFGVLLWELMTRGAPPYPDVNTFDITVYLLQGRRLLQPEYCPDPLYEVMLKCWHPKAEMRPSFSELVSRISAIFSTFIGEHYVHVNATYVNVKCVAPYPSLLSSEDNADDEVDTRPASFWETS
T2 sequence (P08581 25-1390): as above

Compound `CC[C@H](C)[C@@H]([C@@H](CC(=O)N1CCC[C@H]1[C@H](OC)[C@@H](C)C(=O)NS(=O)(=O)c1ccc(N)cc1)OC)N(C)C(=O)[C@@H](NC(=O)[C@H](C(C)C)N(C)C)C(C)C` [Compound 1, (S)-N-((3R,4S,5S)-1-((S)-2-((1R,2R)-3-((4-aminophenyl)sulfonamido)-1-methoxy-2-methyl-3-oxopropyl)pyrrolidin-1-yl)-3-methoxy-5-methyl-1-oxoheptan-4-yl)-2-((S)-2-(dimethylamino)-3-methylbutanamido)-N,3-dimethylbutanamide] has a pEC50 [1] of 7.35, a pEC50 (H292 (lung carcinoma); Homo sapiens, NCI-H292, 96 h, Table 9.1) of 8.13 and a pEC50 (H292 (lung carcinoma); Homo sapiens, NCI-H292, 96 h, Table 12.1) of 8.13. For the same compound, the EC50 (H292 (lung carcinoma); Homo sapiens, NCI-H292, read-out: EC50 (nM) - DAR corrected, H292, 4-5 days, Table 6.1) was 22.2 nM, the pEC50 ([2]; Homo sapiens, EBC-1, 96 h) was 7.58 and the EC50 ([2]; Homo sapiens, EBC-1, read-out: EC50 (nM) - DAR corrected) was 44.4 nM. The pEC50 ([3]; Homo sapiens, NCI-H1975, 96 h) was 7.64, the pEC50 ([4]; Homo sapiens, SNU-5, 96 h, Table 9.1) was 7.40 and the pEC50 ([4]; Homo sapiens, SNU-5, 96 h, Table 12.1) was 7.40. It also gave an EC50 (SW48 (colorectal cancer)) of 43.6 nM and an EC50 (BT-20 (breast cancer); Homo sapiens, BT-20, read-out: EC50 (nM) - DAR corrected) of 39.2 nM.

For “V22277-MCvcPABC-MMAE DAR 4.0: palivizumab (v22277) conjugated to MCvcPABC-MMAE at DAR 4, control [reference compound]”, the pEC50 (H292 (lung carcinoma); Table 8.1, read-out: EC50) was < 8.00, the pEC50 ([2]; EBC-1, 4 days, Table 8.1, read-out: EC50) was < 8.00 and the pEC50 ([3]; H1975, 4 days, Table 8.1, read-out: EC50) was < 8.00. The pEC50 ([4]; Table 8.1, read-out: EC50) was < 8.00, the pEC50 (HCC827 (lung cancer)) was < 8.00 and the pEC50 [5] was < 8.00. The pEC50 (BT-20 (breast cancer); BT-20, 4 days, Table 8.1, read-out: EC50) was < 8.00.

In the case of telisotuzumab vedotin, the anti-tumour activity [6] is listed as “anti-tumour activity”.

With “v22277: anti-RSV antibody, palivizumab, non-targeted control [reference compound]” the “Mean Object Fluorescence (Internalized)” value (EBC-1; 0.3 nM) was 2,686, the “Mean Object Fluorescence (Internalized)” value (EBC-1; 1.9 nM) was 3,054 and the “Mean Object Fluorescence (Internalized)” value (EBC-1; 12 nM) was 1,989. The “Mean Object Fluorescence (Internalized)” value (EBC-1; 70 nM) was 2,605, the pKd [7, 9] was < 7.30 and the pKd [7, 10] was < 7.30. The pKd [8, 9] was < 7.30, the pKd [8, 10] was < 7.30 and the “Mean Object Fluorescence (Internalized)” value (HT-29; 0.3 nM) was 2,746. The “Mean Object Fluorescence (Internalized)” value (HT-29; 1.9 nM) was 2,363, the “Mean Object Fluorescence (Internalized)” value (HT-29; 12 nM) was 2,331 and the “Mean Object Fluorescence (Internalized)” value (HT-29; 70 nM) was 2,290.

Reference: patent US20250222128A1, “ANTIBODY DRUG-CONJUGATES TARGETING C-MET AND METHODS OF USE THEREOF” (Zymeworks BC Inc., priority 2022, published 2025)
